These results are taken from patent US20120264735A1 (priority 2009, published 2012).

Structures are written as SMILES.

T1 sequence (P08581 25-1390): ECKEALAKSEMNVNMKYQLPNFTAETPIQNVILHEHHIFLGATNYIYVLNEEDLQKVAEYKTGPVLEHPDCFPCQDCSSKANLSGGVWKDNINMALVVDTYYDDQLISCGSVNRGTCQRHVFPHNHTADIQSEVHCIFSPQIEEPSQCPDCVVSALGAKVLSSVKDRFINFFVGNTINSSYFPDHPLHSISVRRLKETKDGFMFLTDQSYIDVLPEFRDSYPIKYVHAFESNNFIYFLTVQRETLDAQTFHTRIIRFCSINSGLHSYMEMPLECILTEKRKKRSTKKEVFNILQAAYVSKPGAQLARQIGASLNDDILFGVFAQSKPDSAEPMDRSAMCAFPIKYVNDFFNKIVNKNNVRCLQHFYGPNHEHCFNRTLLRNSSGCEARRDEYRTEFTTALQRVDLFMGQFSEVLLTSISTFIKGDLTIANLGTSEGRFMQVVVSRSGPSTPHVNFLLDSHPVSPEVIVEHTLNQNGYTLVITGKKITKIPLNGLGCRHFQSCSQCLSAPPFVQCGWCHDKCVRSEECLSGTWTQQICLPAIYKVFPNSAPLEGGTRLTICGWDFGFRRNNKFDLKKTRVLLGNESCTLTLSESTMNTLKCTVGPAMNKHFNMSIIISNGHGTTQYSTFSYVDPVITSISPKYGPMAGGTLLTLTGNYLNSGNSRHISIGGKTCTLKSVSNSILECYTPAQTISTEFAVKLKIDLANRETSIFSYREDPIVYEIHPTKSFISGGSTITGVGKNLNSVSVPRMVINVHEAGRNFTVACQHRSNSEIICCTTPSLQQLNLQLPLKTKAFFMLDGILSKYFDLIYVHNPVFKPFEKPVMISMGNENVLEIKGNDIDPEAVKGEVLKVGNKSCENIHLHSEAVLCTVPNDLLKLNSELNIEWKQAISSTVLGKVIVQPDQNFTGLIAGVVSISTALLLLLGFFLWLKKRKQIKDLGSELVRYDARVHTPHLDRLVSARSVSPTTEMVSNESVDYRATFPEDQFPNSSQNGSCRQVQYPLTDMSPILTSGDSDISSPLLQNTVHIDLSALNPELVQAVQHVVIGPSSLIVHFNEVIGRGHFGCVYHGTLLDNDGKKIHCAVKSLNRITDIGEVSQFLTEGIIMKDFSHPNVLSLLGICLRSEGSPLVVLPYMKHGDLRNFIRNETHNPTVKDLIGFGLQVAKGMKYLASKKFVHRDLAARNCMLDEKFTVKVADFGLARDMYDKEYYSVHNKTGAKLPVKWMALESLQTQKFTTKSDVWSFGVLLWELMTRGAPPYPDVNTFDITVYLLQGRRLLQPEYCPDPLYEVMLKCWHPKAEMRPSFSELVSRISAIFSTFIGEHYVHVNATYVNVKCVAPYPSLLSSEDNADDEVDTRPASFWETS

The assay has as its target T1, c-Met kinase (recombinant c-Met) (Homo sapiens, UniProt P08581).
T1 construct: 0.27 nM recombinant c-Met
Description: In vitro kinase assay I (homogeneous time-resolved fluorescence tyrosine kinase assay). Type of assay: biochemical. An outline of the steps: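 Biotinylated peptide (0.5 μM) phosphorylated by 0.2 nM recombinant c-Met with 50 μM MgATP, 60 min at room temperature, pH 7.4, 5% DMSO. EDTA stop; HTRF read with Eu-anti-phosphotyrosine antibody and streptavidin-APC. IC50 from 4-parameter logistic fit.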
As usually defined, the IC50 is the concentration that gives 50% inhibition. For `CN(CCOC(=O)Nc1cccc(Cc2nn(-c3cc(F)c(F)c(F)c3)ccc2=O)c1)c1ccccc1` [Example 550, 2-[methyl(phenyl)amino]ethyl (3-{[4-oxo-1-(3,4,5-trifluorophenyl)-1,4-dihydropyridazin-3-yl]methyl}phenyl)carbamate], the IC50 is below 100 nM.
`O=C(Nc1cccc(Cc2nn(-c3cc(F)c(F)c(F)c3)ccc2=O)c1)OCCCN1CCCC1=O` [Example 551, 3-(2-oxopyrrolidin-1-yl)propyl (3-{[4-oxo-1-(3,4,5-trifluorophenyl)-1,4-dihydropyridazin-3-yl]methyl}phenyl)carbamate]: the IC50 is below 100 nM.
Next, `O=C(Nc1cccc(Cc2nn(-c3cc(F)c(F)c(F)c3)ccc2=O)c1)OCCn1cncn1` [Example 552, 2-(1H-1,2,4-triazol-1-yl)ethyl (3-{[4-oxo-1-(3,4,5-trifluorophenyl)-1,4-dihydropyridazin-3-yl]methyl}phenyl)carbamate]: below 100 nM; `CC1CCN(CCCOC(=O)Nc2cccc(Cc3nn(-c4cc(F)c(F)c(F)c4)ccc3=O)c2)CC1` [Example 553, 3-(4-methylpiperidin-1-yl)propyl (3-{[4-oxo-1-(3,4,5-trifluorophenyl)-1,4-dihydropyridazin-3-yl]methyl}phenyl)carbamate]: below 100 nM; `O=C(Nc1cccc(Cc2nn(-c3cc(F)c(F)c(F)c3)ccc2=O)c1)OCCCN1CCCC1` [Example 554, 3-pyrrolidin-1-ylpropyl (3-{[4-oxo-1-(3,4,5-trifluorophenyl)-1,4-dihydropyridazin-3-yl]methyl}phenyl)carbamate]: below 100 nM.
Turning to `O=C(Nc1cccc(Cc2nn(-c3cc(F)c(F)c(F)c3)ccc2=O)c1)OCC1CCC1` [Example 555, cyclobutylmethyl (3-{[4-oxo-1-(3,4,5-trifluorophenyl)-1,4-dihydropyridazin-3-yl]methyl}phenyl)carbamate], the IC50 is below 100 nM.
Next, `O=C(Nc1cccc(Cc2nn(-c3cc(F)c(F)c(F)c3)ccc2=O)c1)OCC1CCCC1` [Example 556, cyclopentylmethyl (3-{[4-oxo-1-(3,4,5-trifluorophenyl)-1,4-dihydropyridazin-3-yl]methyl}phenyl)carbamate]: below 100 nM.
Next, `O=C(Nc1cccc(Cc2nn(-c3cc(F)c(F)c(F)c3)ccc2=O)c1)OCC1CCCCC1` [Example 557, cyclohexylmethyl (3-{[4-oxo-1-(3,4,5-trifluorophenyl)-1,4-dihydropyridazin-3-yl]methyl}phenyl)carbamate]: below 100 nM; `O=C(Nc1cccc(Cc2nn(-c3cc(F)c(F)c(F)c3)ccc2=O)c1)OCC1CCOCC1` [Example 558, tetrahydro-2H-pyran-4-ylmethyl (3-{[4-oxo-1-(3,4,5-trifluorophenyl)-1,4-dihydropyridazin-3-yl]methyl}phenyl)carbamate]: below 100 nM.
The same measure for `CC1(COC(=O)Nc2cccc(Cc3nn(-c4cc(F)c(F)c(F)c4)ccc3=O)c2)COC1` [Example 560, (3-methyloxetan-3-yl)methyl (3-{[4-oxo-1-(3,4,5-trifluorophenyl)-1,4-dihydropyridazin-3-yl]methyl}phenyl)carbamate]: below 100 nM; for `CN(C)C(=O)CCOC(=O)Nc1cccc(Cc2nn(-c3cc(F)c(F)c(F)c3)ccc2=O)c1` [Example 561, 3-(dimethylamino)-3-oxopropyl (3-{[4-oxo-1-(3,4,5-trifluorophenyl)-1,4-dihydropyridazin-3-yl]methyl}phenyl)carbamate]: below 100 nM; for `Cn1cc(-n2ccc(=O)c(Cc3cccc(NC(=O)OCCC(F)(F)F)c3)n2)cn1` [Example 564, 3,3,3-trifluoropropyl (3-{[1-(1-methyl-1H-pyrazol-4-yl)-4-oxo-1,4-dihydropyridazin-3-yl]methyl}phenyl)carbamate]: below 100 nM.
On to `Cn1cc(-n2ccc(=O)c(Cc3cccc(NC(=O)OCCC4CCOCC4)c3)n2)cn1` [Example 565, 2-(tetrahydro-2H-pyran-4-yl)ethyl (3-{[1-(1-methyl-1H-pyrazol-4-yl)-4-oxo-1,4-dihydropyridazin-3-yl]methyl}phenyl)carbamate], for which the IC50 was below 100 nM.
The same measure for `Cn1cc(-n2ccc(=O)c(Cc3cccc(NC(=O)OCCCN4CCS(=O)(=O)CC4)c3)n2)cn1` [Example 566, 3-(1,1-dioxidothio-morpholin-4-yl)propyl (3-{[1-(1-methyl-1H-pyrazol-4-yl)-4-oxo-1,4-dihydropyridazin-3-yl]methyl}phenyl)carbamate]: below 100 nM.
The same measure for `Cn1cc(-n2ccc(=O)c(Cc3cccc(NC(=O)OCCN4CCS(=O)(=O)CC4)c3)n2)cn1` [Example 567, 2-(1,1-dioxidothio-morpholin-4-yl)ethyl (3-{[1-(1-methyl-1H-pyrazol-4-yl)-4-oxo-1,4-dihydropyridazin-3-yl]methyl}phenyl)carbamate]: below 100 nM.
Next, `CCN(CC)CCCOC(=O)Nc1cccc(Cc2nn(-c3cnn(C)c3)ccc2=O)c1` [Example 571, 3-(diethylamino)propyl (3-{[1-(1-methyl-1H-pyrazol-4-yl)-4-oxo-1,4-dihydropyridazin-3-yl]methyl}phenyl)carbamate]: below 100 nM; `Cn1cc(-n2ccc(=O)c(Cc3cccc(NC(=O)OCCCCO)c3)n2)cn1` [Example 572, 4-hydroxybutyl (3-{[1-(1-methyl-1H-pyrazol-4-yl)-4-oxo-1,4-dihydropyridazin-3-yl]methyl}phenyl)carbamate]: below 100 nM.
For the molecule `COCCCOC(=O)Nc1cccc(Cc2nn(-c3cnn(C)c3)ccc2=O)c1` [Example 575, 3-methoxypropyl (3-{[1-(1-methyl-1H-pyrazol-4-yl)-4-oxo-1,4-dihydropyridazin-3-yl]methyl}phenyl)carbamate], the IC50 is below 100 nM.
Next, `Cn1cc(-n2ccc(=O)c(Cc3cccc(NC(=O)OCC(F)F)c3)n2)cn1` [Example 576, 2,2-difluoroethyl (3-{[1-(1-methyl-1H-pyrazol-4-yl)-4-oxo-1,4-dihydropyridazin-3-yl]methyl}phenyl)carbamate]: below 100 nM; `Cn1cc(-n2ccc(=O)c(Cc3cccc(NC(=O)OCCOC4CCCCC4)c3)n2)cn1` [Example 577, 2-(cyclohexyloxy)ethyl (3-{[1-(1-methyl-1H-pyrazol-4-yl)-4-oxo-1,4-dihydropyridazin-3-yl]methyl}phenyl)carbamate]: below 100 nM; `N#Cc1cccc(-n2ccc(=O)c(Cc3cccc(NC(=O)OCC4CCOCC4)c3)n2)c1` [Example 579, tetrahydro-2H-pyran-4-ylmethyl (3-{[1-(3-cyanophenyl)-4-oxo-1,4-dihydropyridazin-3-yl]methyl}phenyl)carbamate]: below 100 nM.
The same measure for `CCCOC(=O)Nc1cccc(Cc2nn(-c3cccc(C#N)c3)ccc2=O)c1` [Example 580, propyl (3-{[1-(3-cyanophenyl)-4-oxo-1,4-dihydropyridazin-3-yl]methyl}phenyl)carbamate]: below 100 nM.
The same measure for `N#Cc1cccc(-n2ccc(=O)c(Cc3cccc(NC(=O)OCCN4CCCC4=O)c3)n2)c1` [Example 582, 2-(2-oxopyrrolidin-1-yl)ethyl (3-{[1-(3-cyanophenyl)-4-oxo-1,4-dihydropyridazin-3-yl]methyl}phenyl)carbamate]: below 100 nM.
With `N#Cc1cccc(-n2ccc(=O)c(Cc3cccc(NC(=O)OCCN4CCOCC4=O)c3)n2)c1` [Example 584, 2-(3-oxomorpholin-4-yl)ethyl (3-{[1-(3-cyanophenyl)-4-oxo-1,4-dihydropyridazin-3-yl]methyl}phenyl)carbamate], the IC50 was below 100 nM.
Next, `N#Cc1cccc(-n2ccc(=O)c(Cc3cccc(NC(=O)OCCOCC(F)(F)F)c3)n2)c1` [Example 586, 2-(2,2,2-trifluoroethoxy)ethyl (3-{[1-(3-cyanophenyl)-4-oxo-1,4-dihydropyridazin-3-yl]methyl}phenyl)carbamate]: below 100 nM; `N#Cc1cccc(-n2ccc(=O)c(Cc3cccc(NC(=O)OCCn4cncn4)c3)n2)c1` [Example 587, 2-(1H-1,2,4-triazol-1-yl)ethyl (3-{[1-(3-cyanophenyl)-4-oxo-1,4-dihydropyridazin-3-yl]methyl}phenyl)carbamate]: below 100 nM.
Next, `CN(C)C(=O)CCOC(=O)Nc1cccc(Cc2nn(-c3cccc(C#N)c3)ccc2=O)c1` [Example 588, 3-(dimethylamino)-3-oxopropyl (3-{[1-(3-cyanophenyl)-4-oxo-1,4-dihydropyridazin-3-yl]methyl}phenyl)carbamate]: below 100 nM.
The same measure for `CN(C)C(=O)CCOC(=O)Nc1cccc(Cc2nn(-c3cc(F)cc(F)c3)ccc2=O)c1` [Example 589, 3-(dimethylamino)-3-oxopropyl (3-{[1-(3,5-difluorophenyl)-4-oxo-1,4-dihydropyridazin-3-yl]methyl}phenyl)carbamate]: below 100 nM; for `CCCOC(=O)Nc1cccc(Cc2nn(-c3cc(F)cc(F)c3)ccc2=O)c1` [Example 590, propyl (3-{[1-(3,5-difluorophenyl)-4-oxo-1,4-dihydropyridazin-3-yl]methyl}phenyl)carbamate]: below 100 nM.
For `O=C(Nc1cccc(Cc2nn(-c3cc(F)cc(F)c3)ccc2=O)c1)OCCN1CCCC1=O` [Example 592, 2-(2-oxopyrrolidin-1-yl)ethyl (3-{[1-(3,5-difluorophenyl)-4-oxo-1,4-dihydropyridazin-3-yl]methyl}phenyl)carbamate], the IC50 is below 100 nM.
The same measure for `O=C(Nc1cccc(Cc2nn(-c3cc(F)cc(F)c3)ccc2=O)c1)OCCOCC(F)(F)F` [Example 595, 2-(2,2,2-trifluoroethoxy)ethyl (3-{[1-(3,5-difluorophenyl)-4-oxo-1,4-dihydropyridazin-3-yl]methyl}phenyl)carbamate]: below 100 nM; for `N#Cc1cccc(-n2ccc(=O)c(Cc3cccc(NC(=O)OCCN4CCS(=O)(=O)CC4)c3)n2)c1` [Example 596, 2-(1,1-dioxidothio-morpholin-4-yl)ethyl (3-{[1-(3-cyanophenyl)-4-oxo-1,4-dihydropyridazin-3-yl]methyl}phenyl)carbamate]: below 100 nM.
